Experimental data taken from ChEMBL document CHEMBL1156829 (Proc Natl Acad Sci U S A, 2008).

Legend:
[1] = system: Plasmodium falciparum; test: NOVARTIS: Inhibition of Plasmodium falciparum 3D7 (drug-susceptible) proliferation in erythrocyte-based infection assay; type: functional, organism-based; details: Plasmodium falciparum, 3D7
[2] = NOVARTIS: Cytotoxicity against human hepatocellular carcinoma cell line (Huh7); type: toxicity, cell-based, Huh-7; details: Huh7 cells (hepatocellular carcinoma cell line)
[3] = system: Plasmodium falciparum; test: NOVARTIS: Inhibition of Plasmodium falciparum W2 (drug-resistant) proliferation in erythrocyte-based infection assay; type: functional, organism-based; details: Plasmodium falciparum, W2; read-out: EC50

Row | Structure (SMILES) | EC50 [1] [nM] | CC50 [2] [nM] | EC50 [3] [nM]
1 | CC(C)(C)NCC(O)COc1cccc2oc3ccccc3c12 (stereo not given) | > 1250 | > 10000 | 653
2 | Cc1ccc2nc(-c3ccc(O)cc3)oc2c1 | > 1250 | > 10000 | > 635
3 | Brc1ccc(C=Nc2ccc(-c3nc4cc(-c5ccc6[nH]c(-c7ccc(N=Cc8ccc(Br)cc8)cc7)nc6c5)ccc4[nH]3)cc2)cc1 | 587 | > 10000 | 647
4 | Cc1ccn2c(NC(C)(C)CC(C)(C)C)c(-c3ccccc3OC(=O)C(c3ccccc3)c3ccccc3)nc2c1 | 746 | > 1120 | 71.8
5 | CCNC(=O)[C@@H]1C[C@@H](NC2C3CC4CC(C3)CC2C4)CN1Cc1cccc(OC)c1OC (stereo not given in full) | > 12500 | 72200 | 4600
6 | CC(CC(=O)NCCCCNc1ccnc2cc(Cl)ccc12)CC(C)(C)C (stereo not given) | 443 | 4590 | 296
7 | CCOC(=O)CN1C(=O)c2ccccc2Sc2ncccc21 | > 1120 | > 10000 | > 644
8 | Clc1ccc2c(NC3CCCCCCC3)ccnc2c1 | 1040 | > 13700 | 881
9 | CC(=O)N1c2ccccc2CC1C(=O)NCc1cccc(Cl)c1 (stereo not given) | > 12500 | > 100000 | > 6460
10 | CC(=O)c1ccc(N2C(C)c3nc4ccccc4c(=O)n3C2c2cccc(O)c2)cc1 (stereo not given) | 1050 | > 10000 | 646
11 | CCN(CC)CCN(Cc1cc2cc(OC)ccc2[nH]c1=O)C(=S)Nc1ccc(F)cc1 | 2080 | 51400 | 3320
12 | O=C(Nc1ccc2oc(-c3ccc(I)cc3)nc2c1)c1ccc([N+](=O)[O-])o1 | 3160 | 33800 | 2200
13 | CN1CCN(c2c3c(c(C#N)c4nc5ccccc5n24)CCC3)CC1 | 1180 | > 100000 | > 6490
14 | NC(=O)c1ccc2c(c1)N=C(c1cccnc1)N(C1CC1)C2 | 1300 | > 10000 | 648
15 | COc1ccc(-n2cc(-c3ccccc3)[n+]3c2SCC3)cc1 | 527 | > 10000 | 647
16 | COC(=O)C1=C(C)NC2=C(C(=O)CC(C)(C)C2)C1c1ccccc1[N+](=O)[O-] (stereo not given) | > 12500 | > 91500 | 5970
17 | COCCNC(=O)c1ccc(NCCc2ccc(Cl)cc2)c(S(=O)(=O)Nc2cccc(C(F)(F)F)c2)c1 | 7340 | > 100000 | 6520
18 | CC1=C(CCN(CCCN(C)C)CCCN(C)C)C(C)(C)CCC1 | 193 | 7660 | 498
19 | COc1ccccc1-n1c(C=Cc2cc(Br)ccc2O)nc2ccccc2c1=O | 2070 | 19400 | 1240
20 | CC(C)CNC(=O)c1cnc(NCCCn2ccnc2)nc1Nc1ccccc1 | 633 | > 10000 | 639
21 | O=C(C1Cc2ccccc2CN1S(=O)(=O)c1ccc(F)cc1)N1CCOCC1 (stereo not given) | > 1340 | > 10000 | 641
22 | COc1ccc(-c2noc(-c3cccc(I)c3)n2)cc1OC | > 1740 | > 13600 | > 873
23 | CC1CCCCN1CCCNCc1ccc(OCc2ccccc2)cc1 (stereo not given) | 385 | 4650 | 298
24 | CSc1oc(C(C)(C)C)nc1[P+](c1ccccc1)(c1ccccc1)c1ccccc1 | 296 | 6820 | 438
25 | C=CCSc1nc(Sc2ccc(Cl)cc2)c2sc3ccccc3c2n1 | > 1250 | > 10000 | > 642
26 | Cc1cccc(C)c1NC(=O)N1CCN(C(=O)c2nc(-c3ccccc3)nc(C)c2C(=O)OC(C)C)CC1C (stereo not given) | 792 | > 10000 | 642
27 | CC[n+]1c(/C=C/N(C)c2ccccc2)sc(-c2ccccc2)c1-c1ccccc1 | 1100 | > 10000 | 638
28 | CCCn1c(C(CC)N2CCNCC2)nc2ccccc2c1=O (stereo not given) | 285 | > 10000 | 637

Row | Structure (SMILES) | EC50 [1] [nM] | CC50 [2] [nM] | EC50 [3] [nM]
29 | CCC(/C=C1\Sc2ccc3ccccc3c2N1C)=C\c1sc2ccc3ccccc3c2[n+]1C | 2610 | > 100000 | 6370
30 | CCOc1ccc(NC2=C(N3CCOCC3)C(=O)c3ccccc3C2=O)cc1 | 3660 | > 100000 | 6570
31 | Cc1cccc(C)c1NC(=O)N1CCN(C2CCCCC2)CC1 | > 12500 | > 100000 | > 6560
32 | CC(=O)N1CCc2cc(NC3CCN(Cc4ccccc4)CC3)ccc21 | > 1250 | > 10000 | > 656
33 | CCOC(=O)c1ccc(N2C(=O)c3[nH]nc(C)c3C2c2ccccc2OC)cc1 (stereo not given) | 610 | > 10000 | > 655
34 | CC1N=C2c3ccccc3N=C(SCc3ccc(F)cc3)N2C1=O (stereo not given) | > 12500 | > 100000 | > 6530
35 | COc1cc(OC)cc(N2CCN(CCNCCOc3ccccc3)[C@@H](c3ccccc3)C2)c1 | > 1250 | > 10000 | > 635
36 | CC(=O)N1CCN(C(=O)CCCSc2nnc(-c3ccc(C)cc3)n2-c2cccc(C)c2)CC1C (stereo not given) | > 914 | > 10000 | > 634
37 | CC1Cc2ccc(F)cc2CN1C(=O)c1ccc(COc2ccccc2Br)o1 (stereo not given) | 8370 | > 100000 | 6350
38 | COC(CNc1cc(-c2ccccn2)nc(-c2ccccn2)n1)OC | 336 | > 10000 | 633
39 | COc1ccc(N2C(N)=NC(N)=NC23CCCC3)cc1 | 393 | > 100000 | 6350
40 | CC1(C)CC(N=c2cc(-c3ccccc3)oc3ccc(Cl)cc23)CC(C)(C)N1 | 251 | 9600 | 609
41 | O=C1CCC(CCNCc2ccc(Cl)cc2)N1CC1(N2CCCCC2)CCCC1 (stereo not given) | > 1250 | > 10000 | 632
42 | COc1ccccc1N1CCN(c2ccc(NC(=O)c3cccc(F)c3)cc2C(=O)N2CCCC2)CC1 | > 12500 | > 100000 | 6350
43 | CN(C(=O)CCNC(=O)Cn1cnc2ccccc2c1=O)C1CCCCC1 | > 1250 | > 10000 | > 636
44 | CC(NS(=O)(=O)c1ccccc1)C(c1cccs1)N1CCN(c2ccccc2F)CC1 (stereo not given) | > 12500 | > 100000 | 6350
45 | CCOCc1nnc(NC(=O)COc2ccc(Cl)cc2Cl)s1 | > 12500 | > 100000 | 6420
46 | CCCN1CCC(N2C[C@@H](NC3CCCCCC3)C[C@H]2C(=O)NCCc2ccc3c(c2)OCO3)CC1 | 1110 | > 13000 | > 833
47 | Cc1n[nH]c2c1C(c1ccc([N+](=O)[O-])cc1)N(c1ccc(Br)cc1)C2=O (stereo not given) | > 12500 | > 100000 | > 6360
48 | CCC(=O)N(C1=C(NC)C(=O)c2ccccc2C1=O)C(C)C | 8.99 | 563 | 36.5
49 | CC[n+]1c(C=Cc2ccc(Cl)cc2)ccc2ccccc21 | 3750 | 19500 | 1260
50 | CC1=NOC(=O)C1=Cc1ccc(-c2ccc([N+](=O)[O-])cc2)o1 | > 12500 | > 100000 | 6500
51 | CCCC1=NN(c2nc3ccccc3s2)C(=O)C1 | > 1250 | > 10000 | > 644
52 | O=C1NN(c2ccc(Br)cc2)C(=O)/C1=C\c1c(O)ccc2ccccc12 | 856 | > 10000 | 653
53 | CSc1c(C(=O)Nc2ccc(Br)cc2)ccc2c1C(=O)c1ccccc1C2=O | > 1250 | > 10000 | > 640
54 | CC(C)(C)c1ccc(/C=C/C(=O)NCc2ccco2)cc1 | 792 | > 10000 | 639
55 | Cc1cnc(CNc2cc(-c3ccccn3)nc(-c3ccccn3)n2)nc1 | 465 | > 10000 | 646
